Laboratory results taken from article PMC10734437, “Differential inhibition of intra- and inter-molecular protease cleavages by antiviral compounds” (Journal of Virology, 2023).
Like-named read-outs stand apart in the source and are kept apart here. Residues, ends and D or L forms follow the SMILES beside them. *: point of attachment. Cbz = O=C(OCc1ccccc1)*; CH2F = FC*

Assays:
[1] = molecular target: T1, EV-D68 2A N84T mutant (Human enterovirus D68, UniProt Q68T42, N945T); experiment: EV-D68 VP1·2A N84T (telaprevir resistant mutant) self-processing, pulse chase in translation extracts; assay type: biochemical
T1 sequence (Q68T42 553-1008 N945T): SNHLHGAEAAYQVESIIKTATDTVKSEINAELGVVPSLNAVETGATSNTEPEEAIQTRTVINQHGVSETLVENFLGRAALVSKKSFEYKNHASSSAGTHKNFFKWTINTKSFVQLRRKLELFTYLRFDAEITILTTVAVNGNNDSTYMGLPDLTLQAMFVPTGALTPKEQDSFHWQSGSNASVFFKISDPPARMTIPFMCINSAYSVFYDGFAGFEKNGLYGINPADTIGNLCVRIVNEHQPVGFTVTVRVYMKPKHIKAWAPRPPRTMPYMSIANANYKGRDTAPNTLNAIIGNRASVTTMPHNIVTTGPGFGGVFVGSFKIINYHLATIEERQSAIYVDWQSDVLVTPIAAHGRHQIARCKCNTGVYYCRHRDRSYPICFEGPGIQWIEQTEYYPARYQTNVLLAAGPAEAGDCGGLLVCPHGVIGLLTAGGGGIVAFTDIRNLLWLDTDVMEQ

[2] = molecular target: T2, EV-D68 2A protease (Human enterovirus D68, UniProt A0A097BW12); experiment: biochemical; assay type: biochemical
T2 sequence (A0A097BW12 862-1008): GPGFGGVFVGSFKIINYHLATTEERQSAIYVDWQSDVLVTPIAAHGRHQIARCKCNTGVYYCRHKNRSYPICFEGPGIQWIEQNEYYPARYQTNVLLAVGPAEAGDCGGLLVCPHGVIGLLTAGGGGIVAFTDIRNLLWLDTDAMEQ

[3] = molecular target: T2, EV-D68 2A protease; experiment: EV-D68 VP1·2A self-processing (intra-molecular cleavage) in translation extracts; assay type: biochemical
[4] = molecular target: poliovirus 3C protease (Poliovirus type 1, UniProt P03300); experiment: biochemical; assay type: biochemical
Chain of poliovirus 3C protease (P03300 1457-1748 limits assumed): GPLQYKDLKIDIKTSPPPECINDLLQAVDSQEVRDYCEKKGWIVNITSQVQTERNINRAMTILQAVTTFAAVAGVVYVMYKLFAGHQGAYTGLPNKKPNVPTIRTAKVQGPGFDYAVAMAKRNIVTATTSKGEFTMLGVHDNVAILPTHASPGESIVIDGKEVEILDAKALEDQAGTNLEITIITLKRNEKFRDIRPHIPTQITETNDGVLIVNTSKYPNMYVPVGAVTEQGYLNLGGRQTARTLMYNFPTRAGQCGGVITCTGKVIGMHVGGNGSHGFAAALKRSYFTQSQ

[5] = molecular target: EV-D68 3C protease (Human enterovirus D68, UniProt Q68T42); assay type: biochemical
Chain of EV-D68 3C protease (Q68T42 1438-1731 limits assumed): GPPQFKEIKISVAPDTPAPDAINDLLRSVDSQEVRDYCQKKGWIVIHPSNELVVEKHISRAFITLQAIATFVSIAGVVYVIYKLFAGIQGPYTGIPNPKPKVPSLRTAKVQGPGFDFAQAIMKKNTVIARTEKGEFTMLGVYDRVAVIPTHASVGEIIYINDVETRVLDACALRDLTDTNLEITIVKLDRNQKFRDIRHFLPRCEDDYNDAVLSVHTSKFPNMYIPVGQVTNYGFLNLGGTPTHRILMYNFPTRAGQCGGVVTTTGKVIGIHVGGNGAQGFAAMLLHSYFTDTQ

[6] = molecular target: T3, poliovirus 2A protease (Poliovirus type 1, UniProt P03300)
Target sequence in this assay (P03300 580-1030 limits assumed): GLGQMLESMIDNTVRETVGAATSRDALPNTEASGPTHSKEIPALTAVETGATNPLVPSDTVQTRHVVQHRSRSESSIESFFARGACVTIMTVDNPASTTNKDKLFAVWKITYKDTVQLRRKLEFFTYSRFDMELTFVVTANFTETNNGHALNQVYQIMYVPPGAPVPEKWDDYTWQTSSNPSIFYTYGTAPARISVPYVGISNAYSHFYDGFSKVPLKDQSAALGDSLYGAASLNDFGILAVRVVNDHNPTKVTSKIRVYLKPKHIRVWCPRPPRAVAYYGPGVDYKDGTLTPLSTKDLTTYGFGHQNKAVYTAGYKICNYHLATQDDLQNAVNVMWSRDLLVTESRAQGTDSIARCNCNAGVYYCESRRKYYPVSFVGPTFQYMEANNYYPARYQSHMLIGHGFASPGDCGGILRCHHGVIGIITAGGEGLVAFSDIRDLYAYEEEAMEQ

[7] = tested on: rhinovirus protease; settings: cited from earlier work
[8] = molecular target: T3, poliovirus 2A protease; settings: read-out: IC50, eIF4G (inter-molecular) cleavage by poliovirus 2A
Target sequence in this assay (P03300 882-1030 limits assumed): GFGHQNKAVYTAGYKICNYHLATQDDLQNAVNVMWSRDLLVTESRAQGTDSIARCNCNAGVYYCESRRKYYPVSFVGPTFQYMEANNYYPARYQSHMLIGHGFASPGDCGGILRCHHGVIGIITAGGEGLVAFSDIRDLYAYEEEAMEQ

## CCC[C@H](NC(=O)[C@@H]1[C@H]2CCC[C@H]2CN1C(=O)[C@@H](NC(=O)[C@@H](NC(=O)c1cnccn1)C1CCCCC1)C(C)(C)C)C(=O)C(=O)NC1CC1 [Telaprevir]
[1]
  N84T mutant self-processing, pulse chase in the presence of telaprevir: not inhibited
[2]
  inhibition of inter-molecular processing of eIF4G: fully inhibited
[2]; IC50, eIF4G (inter-molecular) cleavage by EV-D68 2A
  IC50: 0.19 µM
[2]; IC50, inter-molecular cleavage of eIF4G by EV-D68 2A
  IC50: ~0.2 µM
[3]; 1 µM telaprevir
  rate of VP1·2A self-processing, pulse chase, WT construct: significantly decreased
[3]; 1-µM telaprevir, maximum concentration testable
  inhibition of intra-molecular processing of VP1·2A: 20%
[3]; EV-D68 2A
  fold higher IC50 for intra-molecular VP1·2A cleavage than for inter-molecular eIF4G cleavage: more than 20 fold
[3]; approximate, translation extracts, drug added at initiation of translation
  IC50: 3.96 µM

## CCOC(=O)/C=C/[C@H](C[C@@H]1CCNC1=O)NC(=O)[C@@H](CC(=O)[C@@H](NC(=O)c1cc(C)on1)C(C)C)Cc1ccc(F)cc1 [Rupintrivir]
[4]
  inhibition of poliovirus 3ABC processing, concentration curve: near-complete inhibition
  inhibition of self-processing, poliovirus inter-molecular 3ABC processing, pulse chase: ~100%
[4]; IC50, Poliovirus 3ABC (inter-molecular) cleavage
  IC50: 0.76 µM
[4]; IC50, inter-molecular cleavage of poliovirus 3ABC
  IC50: ~0.76 µM
[5]
  inhibition of EV-D68 3ABC processing, concentration curve: near-complete inhibition
  inhibition of self-processing, EV-D68 intra-molecular 3ABC processing, pulse chase: ~100%

## CSCCC(NC(=O)C(C)NC(=O)C(NC(=O)OCc1ccccc1)C(C)C)C(=O)CF (stereo not drawn) [zVAM.fmk] (Cbz-Val-Ala-Met-CH2F; configuration not given here)
[6]
  inhibition of VP1·2A cis cleavage, pulse chase: significant inhibition
[6]; read-out: IC50, Poliovirus VP1·2A (intra-molecular) cleavage
  IC50: 1570 µM
[6]; read-out: IC50, intra-molecular poliovirus VP1·2A cleavage
  IC50: ~1600 µM
[7]
  concentration of optimal effects on rhinovirus VP1·2A precursor processing and eIF4G cleavage: 200 µM
[8]
  IC50: 18.9 µM
